Like-named read-outs stand apart in the source and are kept apart here.
Tested on: Colo205 cells
Type: cell-based, human
[1] = selinexor-treated nucleus vs MYXV + selinexor-treated nucleus

Structure (SMILES): O=C(/C=C\n1cnc(-c2cc(C(F)(F)F)cc(C(F)(F)F)c2)n1)NNc1cnccn1 [selinexor]
- Differential protein expression, selinexor-treated nucleus vs control nucleus (protein NDE1 (Q9NXR1)): 0.484
- Differential protein expression, selinexor-treated nucleus vs control nucleus (protein NDEL1 (Q9GZM8)): 0.481
- Differential protein expression, selinexor-treated nucleus vs control nucleus (protein NDUFA5 (Q16718)): 0.488
- Differential protein expression, selinexor-treated nucleus vs control nucleus (protein NDUFA11 (Q86Y39)): 0.492
- Differential protein expression, selinexor-treated nucleus vs control nucleus (protein NDUFS3 (075489)): 0.478
- Differential protein expression, selinexor-treated nucleus vs control nucleus (protein NDUFS8 (O00217)): 0.487
- Differential protein expression, selinexor-treated nucleus vs control nucleus (protein NFAT5 (O94916)): 2.586
- Differential protein expression, selinexor-treated nucleus vs control nucleus (protein NUDT3 (O95989)): 100
- Differential protein expression, selinexor-treated nucleus vs control nucleus (protein NXN (Q6DKJ4)): 100
- Differential protein expression, selinexor-treated nucleus vs control nucleus (protein OAS1 (P00973)): 2.45
- Differential protein expression, selinexor-treated nucleus vs control nucleus (protein OCIAD2 (Q56VL3)): 0.5
- Differential protein expression, selinexor-treated nucleus vs control nucleus (protein PAN2 (Q504Q3)): 2.108
- Differential protein expression, selinexor-treated nucleus vs control nucleus (protein PAN3 (Q58A45)): 2.073
- Differential protein expression, selinexor-treated nucleus vs control nucleus (protein PANK1 (Q8TE04)): 100
- Differential protein expression, selinexor-treated nucleus vs control nucleus (protein PATL1 (Q86TB9)): 0.487
- Differential protein expression, selinexor-treated nucleus vs control nucleus (protein PAXX (Q9BUH6)): 2.321
- Differential protein expression, selinexor-treated nucleus vs control nucleus (protein PHF19 (Q5T6S3)): 0.477
- Differential protein expression, selinexor-treated nucleus vs control nucleus (protein PNO1 (Q9NRX1)): 2.639
- Differential protein expression, selinexor-treated nucleus vs control nucleus (protein POLR2B (P30876)): 0.486
- Differential protein expression, selinexor-treated nucleus vs control nucleus (protein PRDX4 (Q13162)): 2.477
- Differential protein expression, selinexor-treated nucleus vs control nucleus (protein RBL2 (Q08999)): 2.063
- Differential protein expression, selinexor-treated nucleus vs control nucleus (protein ROCK1 (Q13464)): 2.201
- Differential protein expression, selinexor-treated nucleus vs control nucleus (protein RPL10 (P27635)): 0.483
- Differential protein expression, selinexor-treated nucleus vs control nucleus (protein RPL10L (Q96L21)): 0.473
- Differential protein expression, selinexor-treated nucleus vs control nucleus (protein RPLP1 (P05386)): 0.472
- Differential protein expression, selinexor-treated nucleus vs control nucleus (protein RRM1 (P23921)): 0.488
- Differential protein expression, selinexor-treated nucleus vs control nucleus (protein RTN4 (Q9NQC3)): 0.491
- Differential protein expression, selinexor-treated nucleus vs control nucleus (protein S100A8 (P05109)): 2.396
- Differential protein expression, selinexor-treated nucleus vs control nucleus (protein SDAD1 (Q9NVU7)): 2.021
- Differential protein expression, selinexor-treated nucleus vs control nucleus (protein SDCBP2 (Q9H190)): 2.735
- Differential protein expression, selinexor-treated nucleus vs control nucleus (protein SFXN2 (Q96NB2)): 0.478
- Differential protein expression, selinexor-treated nucleus vs control nucleus (protein SFXN5 (Q8TD22)): 0.48
- Differential protein expression, selinexor-treated nucleus vs control nucleus (protein SLC12A7 (Q9Y666)): 0.496
- Differential protein expression, selinexor-treated nucleus vs control nucleus (protein SLC25A11 (Q02978)): 0.496
- Differential protein expression, selinexor-treated nucleus vs control nucleus (protein SLC25A12 (O75746)): 0.483
- Differential protein expression, selinexor-treated nucleus vs control nucleus (protein SLC25A17 (O43808)): 0.484
- Differential protein expression, selinexor-treated nucleus vs control nucleus (protein SLC25A35 (Q3KQZ1)): 0.474
- Differential protein expression, selinexor-treated nucleus vs control nucleus (protein SPG7 (Q9UQ90)): 0.481
- Differential protein expression, selinexor-treated nucleus vs control nucleus (protein TDRKH (Q9Y2W6)): 0.492
- Differential protein expression, selinexor-treated nucleus vs control nucleus (protein TEAD2 (Q15562)): 0.487
- Differential protein expression, selinexor-treated nucleus vs control nucleus (protein TEAD4 (Q15561)): 0.494
- Differential protein expression, selinexor-treated nucleus vs control nucleus (protein TMA7 (Q9Y2S6)): 2.251
- Differential protein expression, selinexor-treated nucleus vs control nucleus (protein TOMM20 (Q15388)): 0.497
- Differential protein expression, selinexor-treated nucleus vs control nucleus (protein TPPP3 (Q9BW30)): 2.549
- Differential protein expression, selinexor-treated nucleus vs control nucleus (protein UQCR10 (Q9UDW1)): 0.477
- Differential protein expression, selinexor-treated nucleus vs control nucleus (protein VCPIP1 (Q96JH7)): 2.057
- Differential protein expression, selinexor-treated nucleus vs control nucleus (protein YBX1 (P67809)): 0.477
- Differential protein expression, selinexor-treated nucleus vs control nucleus (protein m090L (D2WN26)): 100
- Differential protein expression, selinexor-treated nucleus vs control nucleus (protein m093L (Q9Q8K7)): 0.498
- Differential protein expression B2CWA6 m003.1R [1]: 0.145
- Differential protein expression B2CWA8 [1]: 0.122
- Differential protein expression B2CWB0 [1]: 0.01
- Differential protein expression B2CWB2 [1]: 0.055
- Differential protein expression B2CWB4 m008.1L [1]: 0.045
- Differential protein expression B2CWB5 [1]: 0.036
- Differential protein expression B2CWC0 [1]: 0.092
- Differential protein expression B2CWC1 m015L [1]: 0.04
- Differential protein expression B2CWC6 m020L [1]: 0.191
- Differential protein expression B2CWC8 [1]: 0.058
- Differential protein expression B2CWD4 m027L [1]: 0.045
- Differential protein expression B2CWD6 m029L [1]: 0.023
- Differential protein expression B2CWD8 [1]: 0.011
- Differential protein expression B2CWE0 m033R [1]: 0.01
- Differential protein expression B2CWE1 [1]: 0.047
- Differential protein expression B2CWE3 [1]: 0.064
- Differential protein expression B2CWF3 m046L [1]: 0.111
- Differential protein expression B2CWF4 m047R [1]: 0.039
- Differential protein expression B2CWF6 [1]: 0.051

— patent US20250249056A1, “CANCER THERAPIES COMPRISING A NUCLEAR EXPORT INHIBITOR AND AN ONCOLYTIC VIRUS” (priority 2022, published 2025)
